Columns and labels:
[1] = target: T1, WRN [UniPro: Q14191 (WRN_HUMAN), N500-C946] (Homo sapiens (Human), UniProt Q14191); experiment: WRN ATPase assay (ADP-Glo); format: biochemical; details: WRN enzymatic activity assay
[2] = target: T1, WRN [UniPro: Q14191 (WRN_HUMAN), N500-C946]; experiment: WRN unwinding assay (FORKF DNA, fluorescence); format: biochemical; details: Table 14

T1 sequence (Q14191 500-946): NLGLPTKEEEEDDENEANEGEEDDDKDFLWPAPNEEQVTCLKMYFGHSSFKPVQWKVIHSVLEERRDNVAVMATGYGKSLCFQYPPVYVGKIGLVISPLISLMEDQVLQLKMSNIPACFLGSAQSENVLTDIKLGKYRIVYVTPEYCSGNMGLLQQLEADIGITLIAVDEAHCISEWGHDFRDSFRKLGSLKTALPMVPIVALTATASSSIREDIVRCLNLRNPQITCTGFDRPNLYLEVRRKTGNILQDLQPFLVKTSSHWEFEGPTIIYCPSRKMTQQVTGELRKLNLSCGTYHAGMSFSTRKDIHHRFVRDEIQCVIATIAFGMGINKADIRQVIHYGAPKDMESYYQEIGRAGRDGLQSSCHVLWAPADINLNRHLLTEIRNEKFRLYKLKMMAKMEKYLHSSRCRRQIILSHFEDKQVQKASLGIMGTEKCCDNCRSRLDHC

| SMILES | IC50 [1] [µM] | IC50 [2] [µM] |
| --- | --- | --- |
| CCc1c(N2CCN(C(=O)c3ccnc4cc[nH]c34)CC2)c(=O)n2nc(C3=CCOCC3)nc2n1CC(=O)Nc1ccc(Cl)cc1C(F)(F)F [Example 68, 2-(6-(4-(1H-Pyrrolo[3,2-b]pyridine-7-carbonyl)piperazin-1-yl)-2-(3,6-dihydro-2H-pyran-4-yl)-5-ethyl-7-oxo-[1,2,4]triazolo[1,5-a]pyrimidin-4(7H)-yl)-N-(4-chloro-2-(trifluoromethyl)phenyl)acetamide] | 0.1 to 1 | 0.1 to 1 |
| CCc1c(N2CCN(C(=O)c3ncnc4[nH]ccc34)CC2)c(=O)n2nc(C3=CCOCC3)nc2n1CC(=O)Nc1ccc(Cl)cc1C(F)(F)F [Example 69, 2-(6-(4-(7H-Pyrrolo[2,3-d]pyrimidine-4-carbonyl)piperazin-1-yl)-2-(3,6-dihydro-2H-pyran-4-yl)-5-ethyl-7-oxo-[1,2,4]triazolo[1,5-a]pyrimidin-4(7H)-yl)-N-(4-chloro-2-(trifluoromethyl)phenyl)acetamide] | 0.1 to 1 | < 0.1 |
| CCc1c(N2CCN(C(=O)c3cnc(C(F)(F)F)[nH]3)CC2)c(=O)n2nc(C3=CCOCC3)nc2n1CC(=O)Nc1ccc(Cl)cc1C(F)(F)F [Example 70, N-(4-Chloro-2-(trifluoromethyl)phenyl)-2-(2-(3,6-dihydro-2H-pyran-4-yl)-5-ethyl-7-oxo-6-(4-(2-(trifluoromethyl)-1H-imidazole-5-carbonyl)piperazin-1-yl)-[1,2,4]triazolo[1,5-a]pyrimidin-4(7H)-yl)acetamide] | 0.1 to 1 | 0.1 to 1 |
| CCc1c(N2CCN(C(=O)c3nc4cnccn4c3O)CC2)c(=O)n2nc(C3=CCOCC3)nc2n1CC(=O)Nc1ccc(C(F)(F)F)cc1Cl [Example 75, N-(2-Chloro-4-(trifluoromethyl)phenyl)-2-(2-(3,6-dihydro-2H-pyran-4-yl)-5-ethyl-6-(4-(3-hydroxyimidazo[1,2-a]pyrazine-2-carbonyl)piperazin-1-yl)-7-oxo-[1,2,4]triazolo[1,5-a]pyrimidin-4(7H)-yl)acetamide] | 0.1 to 1 | < 0.1 |
| CCc1c(N2CCN(C(=O)c3n[nH]cc(C)c3=O)CC2)c(=O)n2nc(C3=CCOCC3)nc2n1CC(=O)Nc1ccc(C(F)(F)F)cc1Cl [Example 76, N-(2-Chloro-4-(trifluoromethyl)phenyl)-2-(2-(3,6-dihydro-2H-pyran-4-yl)-5-ethyl-6-(4-(5-methyl-4-oxo-1,4-dihydropyridazine-3-carbonyl)piperazin-1-yl)-7-oxo-[1,2,4]triazolo[1,5-a]pyrimidin-4(7H)-yl)acetamide] | 0.1 to 1 | < 0.1 |
| CCc1c(N2CCN(C(=O)c3ccnc(=O)[nH]3)CC2)c(=O)n2nc(C3=CCOCC3)nc2n1CC(=O)Nc1ccc(C(F)(F)F)cc1Cl [Example 79, N-(2-Chloro-4-(trifluoromethyl)phenyl)-2-(2-(3,6-dihydro-2H-pyran-4-yl)-5-ethyl-7-oxo-6-(4-(2-oxo-2,3-dihydropyrimidine-4-carbonyl)piperazin-1-yl)-[1,2,4]triazolo[1,5-a]pyrimidin-4(7H)-yl)acetamide] | 0.1 to 1 | < 0.1 |
| CCc1c(N2CCN(C(=O)c3cc4ccn(C)c4cc3O)CC2)c(=O)n2nc(C3=CCOCC3)nc2n1CC(=O)Nc1ccc(C(F)(F)F)cc1Cl [Example 80, N-(2-Chloro-4-(trifluoromethyl)phenyl)-2-(2-(3,6-dihydro-2H-pyran-4-yl)-5-ethyl-6-(4-(6-hydroxy-1-methyl-1H-indole-5-carbonyl)piperazin-1-yl)-7-oxo-[1,2,4]triazolo[1,5-a]pyrimidin-4(7H)-yl)acetamide] | 0.1 to 1 | < 0.1 |
| CCc1c(N2CCN(C(=O)c3cnn4cccc4c3O)CC2)c(=O)n2nc(C3=CCOCC3)nc2n1CC(=O)Nc1ccc(C(F)(F)F)cc1Cl [Example 84, N-(2-Chloro-4-(trifluoromethyl)phenyl)-2-(2-(3,6-dihydro-2H-pyran-4-yl)-5-ethyl-6-(4-(4-hydroxypyrrolo[1,2-b]pyridazine-3-carbonyl)piperazin-1-yl)-7-oxo-[1,2,4]triazolo[1,5-a]pyrimidin-4(7H)-yl)acetamide] | < 0.1 | < 0.1 |
| CCc1c(N2CCN(C(=O)c3nn4ccnc4cc3O)CC2)c(=O)n2nc(C3=CCOCC3)nc2n1CC(=O)Nc1ccc(C(F)(F)F)cc1Cl [Example 85, N-(2-Chloro-4-(trifluoromethyl)phenyl)-2-(2-(3,6-dihydro-2H-pyran-4-yl)-5-ethyl-6-(4-(7-hydroxyimidazo[1,2-b]pyridazine-6-carbonyl)piperazin-1-yl)-7-oxo-[1,2,4]triazolo[1,5-a]pyrimidin-4(7H)-yl)acetamide] | < 0.1 | < 0.1 |
| CCc1c(N2CCN(C(=O)c3sc4ncccc4c3O)CC2)c(=O)n2nc(C3=CCOCC3)nc2n1CC(=O)Nc1ccc(C(F)(F)F)cc1Cl [Example 87, N-(2-Chloro-4-(trifluoromethyl)phenyl)-2-(2-(3,6-dihydro-2H-pyran-4-yl)-5-ethyl-6-(4-(3-hydroxythieno[2,3-b]pyridine-2-carbonyl)piperazin-1-yl)-7-oxo-[1,2,4]triazolo[1,5-a]pyrimidin-4(7H)-yl)acetamide] | < 0.1 | < 0.1 |

Continued, values first:

| IC50 [1] [µM] | IC50 [2] [µM] | SMILES |
| --- | --- | --- |
| < 0.1 | < 0.1 | CCc1c(N2CCN(C(=O)c3cc4ccsc4[nH]c3=O)CC2)c(=O)n2nc(C3=CCOCC3)nc2n1CC(=O)Nc1ccc(C(F)(F)F)cc1Cl [Example 71, N-(2-Chloro-4-(trifluoromethyl)phenyl)-2-(2-(3,6-dihydro-2H-pyran-4-yl)-5-ethyl-7-oxo-6-(4-(6-oxo-6,7-dihydrothieno[2,3-b]pyridine-5-carbonyl)piperazin-1-yl)-[1,2,4]triazolo[1,5-a]pyrimidin-4(7H)-yl)acetamide] |
| < 0.1 | < 0.1 | CCc1c(N2CCN(C(=O)c3ccn4nc(C)cc4c3O)CC2)c(=O)n2nc(C3=CCOCC3)nc2n1CC(=O)Nc1ccc(C(F)(F)F)cc1Cl [Example 72, N-(2-Chloro-4-(trifluoromethyl)phenyl)-2-(2-(3,6-dihydro-2H-pyran-4-yl)-5-ethyl-6-(4-(4-hydroxy-2-methylpyrazolo[1,5-a]pyridine-5-carbonyl)piperazin-1-yl)-7-oxo-[1,2,4]triazolo[1,5-a]pyrimidin-4(7H)-yl)acetamide] |
| < 0.1 | < 0.1 | CCc1c(N2CCN(C(=O)c3n[nH]c(=O)n(C)c3=O)CC2)c(=O)n2nc(C3=CCOCC3)nc2n1CC(=O)Nc1ccc(Cl)cc1C(F)(F)F [Example 73, N-(4-Chloro-2-(trifluoromethyl)phenyl)-2-(2-(3,6-dihydro-2H-pyran-4-yl)-5-ethyl-6-(4-(4-methyl-3,5-dioxo-2,3,4,5-tetrahydro-1,2,4-triazine-6-carbonyl)piperazin-1-yl)-7-oxo-[1,2,4]triazolo[1,5-a]pyrimidin-4(7H)-yl)acetamide] |
| < 0.1 | < 0.1 | CCc1c(N2CCN(C(=O)c3sc4cnccc4c3O)CC2)c(=O)n2nc(C3=CCOCC3)nc2n1CC(=O)Nc1ccc(C(F)(F)F)cc1Cl [Example 74, N-(2-Chloro-4-(trifluoromethyl)phenyl)-2-(2-(3,6-dihydro-2H-pyran-4-yl)-5-ethyl-6-(4-(3-hydroxythieno[2,3-c]pyridine-2-carbonyl)piperazin-1-y1)-7-oxo-[1,2,4]triazolo[1,5-a]pyrimidin-4(7H)-yl)acetamide] |
| < 0.1 | < 0.1 | CCc1c(N2CCN(C(=O)c3cnc4c(ccn4C)c3O)CC2)c(=O)n2nc(C3=CCOCC3)nc2n1CC(=O)Nc1ccc(C(F)(F)F)cc1Cl [Example 77, N-(2-Chloro-4-(trifluoromethyl)phenyl)-2-(2-(3,6-dihydro-2H-pyran-4-yl)-5-ethyl-6-(4-(4-hydroxy-1-methyl-1H-pyrrolo[2,3-b]pyridine-5-carbonyl)piperazin-1-yl)-7-oxo-[1,2,4]triazolo[1,5-a]pyrimidin-4(7H)-yl)acetamide] |
| < 0.1 | < 0.1 | CCc1c(N2CCN(C(=O)c3cccc(=O)[nH]3)CC2)c(=O)n2nc(C3=CCOCC3)nc2n1CC(=O)Nc1ccc(C(F)(F)F)cc1Cl [Example 78, N-(2-Chloro-4-(trifluoromethyl)phenyl)-2-(2-(3,6-dihydro-2H-pyran-4-yl)-5-ethyl-7-oxo-6-(4-(6-oxo-1,6-dihydropyridine-2-carbonyl)piperazin-1-yl)-[1,2,4]triazolo[1,5-a]pyrimidin-4(7H)-yl)acetamide] |
| < 0.1 | < 0.1 | CCc1c(N2CCN(C(=O)c3cnc4ncsc4c3O)CC2)c(=O)n2nc(C3=CCOCC3)nc2n1CC(=O)Nc1ccc(C(F)(F)F)cc1Cl [Example 81, N-(2-Chloro-4-(trifluoromethyl)phenyl)-2-(2-(3,6-dihydro-2H-pyran-4-yl)-5-ethyl-6-(4-(7-hydroxythiazolo[4,5-b]pyridine-6-carbonyl)piperazin-1-yl)-7-oxo-[1,2,4]triazolo[1,5-a]pyrimidin-4(7H)-yl)acetamide] |
| < 0.1 | < 0.1 | CCc1c(N2CCN(C(=O)c3nnccc3O)CC2)c(=O)n2nc(C3=CCOCC3)nc2n1CC(=O)Nc1ccc(C(F)(F)F)cc1Cl [Example 82, N-(2-Chloro-4-(trifluoromethyl)phenyl)-2-(2-(3,6-dihydro-2H-pyran-4-yl)-5-ethyl-6-(4-(4-hydroxypyridazine-3-carbonyl)piperazin-1-yl)-7-oxo-[1,2,4]triazolo[1,5-a]pyrimidin-4(7H)-yl)acetamide] |
| < 0.1 | < 0.1 | CCc1c(N2CCN(C(=O)c3nnc(Cl)cc3O)CC2)c(=O)n2nc(C3=CCOCC3)nc2n1CC(=O)Nc1ccc(C(F)(F)F)cc1Cl [Example 83, N-(2-Chloro-4-(trifluoromethyl)phenyl)-2-(6-(4-(6-chloro-4-hydroxypyridazine-3-carbonyl)piperazin-1-yl)-2-(3,6-dihydro-2H-pyran-4-yl)-5-ethyl-7-oxo-[1,2,4]triazolo[1,5-a]pyrimidin-4(7H)-yl)acetamide] |
